According to patent publication US6599924B1, “2-hetaryl-3,4-dihydro-2H-pyrrole derivatives” (Bayer Aktiengesellschaft, priority 1998, dated 2003):

Experiments:
physchem = conditions: pH 7.5
[1] = not given; remark: listed apart in the source

Row | Compound | logP (log P determination; pH 2.3) | further results
1 | FC(F)(F)Oc1ccc(-c2ccc(C3CCC(c4cccs4)=N3)cc2)cc1 (stereo not shown) [Example I-7] | 2.45 | 
2 | FC(F)(F)Oc1ccc(-c2ccc(C3CCC(c4ccc(Br)s4)=N3)cc2)cc1 (stereo not shown) [Example I-618] | 4.73 | 
3 | FC(F)(F)Oc1ccc(-c2ccc(C3CCC(c4sccc4Cl)=N3)cc2)cc1 (stereo not shown) [Example I-195] | 4.67 | 
4 | FC(F)(F)Oc1ccc(Oc2ccc(C3CCC(c4sccc4Cl)=N3)cc2)cc1 (stereo not shown) [Example I-708, 2-(5-(4-Trifluoromethoxyphenoxy-phenyl)-Δ^2-pyrrolin-2-yl)-3-chlorothiophene] | 4.5 | 
5 | FC(F)(F)Oc1ccc(-c2ccc(C3CCC(c4ccsc4)=N3)cc2)cc1 (stereo not shown) [Example I-430] | 2.44 | 
6 | CC(C)(C)OC(=O)NC(CCC(=O)c1sccc1F)c1ccc(-c2ccc(OC(F)(F)F)cc2)cc1 (stereo not shown) [II-868] | 5.05 | 
7 | FC(F)(F)Oc1ccc(Oc2ccc(C3CCC(c4sccc4Cl)=N3)cc2)cc1 (stereo not shown) [Example I-710] |  | logP (log P determination): 4.5
8 | FC(F)(F)Oc1ccc(-c2ccc(C3CCC(c4ncccc4C(F)(F)F)=N3)cc2)cc1 (stereo not shown) [Example I-336] | 5.06 | 
9 | Oc1ccc(C2CCC(c3sccc3Cl)=N2)cc1 (stereo not shown) [Example I-706, 2-(5-(4-Hydroxyphenyl)-Δ^2-pyrrolin-2-yl)-3-chlorothiophene] |  | melting point: 146 °C
10 | CC(C)(C)c1ccc(COc2ccc(C3CCC(c4sccc4Cl)=N3)cc2)cc1 (stereo not shown) [Example I-718, 3-Chloro-2-[5-(4-(4-tert-butylbenzyloxy)-phenyl)-Δ^2-pyrrolin-2-yl]-thiophene] |  | melting point: 102 °C
11 | C=CCOc1ccc(C2CCC(c3sccc3Cl)=N2)cc1 (stereo not shown) [Example I-707] |  | logP (log P determination): 2.29
12 | FC(F)(F)Oc1ccc(-c2ccc(C3CCC(c4ccc(Cl)s4)=N3)cc2)cc1 (stereo not shown) [Example I-148] | 4.21 | 
13 | Fc1ccsc1C1=NC(c2ccc(-c3ccc(OC(F)(F)F)cc3)cc2)CC1 (stereo not shown) [Example I-868, 5-(3-fluorothien-2-yl)-3,4-dihydro-2-[4′-trifluoromethoxy]-[1,1′-biphenyl]-4-yl-2H-pyrrole] | 3.18 | 
14 | c1ccc(C2CCC(c3cccnc3)=N2)cc1 (stereo not shown) [Example I-678] |  | logP (physchem): 2.01
15 | C#CCOc1ccc(C2CCC(c3sccc3Cl)=N2)cc1 (stereo not shown) [Example I-720] |  | logP (log P determination): 1.97
16 | 1-dimethylamino-5-phenylpyrrolidone-2 [G (I′-678)] |  | logp (pH=7.5) [1]: 1.52
